# In US12729377B2, “RNAi agents and compositions for inhibiting expression of angiopoietin-like 3 (ANGPTL3), and methods of use” (Arrowhead Pharmaceuticals, Inc., priority 2017, dated 2026):
# In the oligonucleotide strings, read from the 5' end, every base follows the letter of its sugar. An asterisk marks phosphorothioate; unmarked linkages are phosphodiester. Other units and linkages are bracketed, terminal groups are in braces. A string of capitals states the bases alone. {NAG37} = tridentate N-acetyl-galactosamine targeting ligand, structure (NAG37)s; [invAb] = inverted abasic unit; m = 2'-O-methyl; f = 2'-fluoro
# Legend:
# ANGPTL3 gene [1] = test: Example 9: serum LDL in cynomolgus monkeys; assay type: in vivo, cynomolgus macaque (Macaca fascicularis); conditions: 2.0 mg/kg single SC injection day 1, cynos, n=3
# Procedure: (§1) Additional ANGPTL3 RNAi agents were evaluated in cynomolgus monkeys. On day 1, cynomolgus macaque (Macaca fascicularis) primates (also referred to herein as “cynos”) were administered a single subcutaneous injection of 0.3 mL/kg (approximately 2-3 mL volume, depending on animal mass) containing 2.0 mg/kg of an ANGPTL3 RNAi agent, which included either AD05488, AD05743, AD05775, or AD05841, each formulated in saline. […] ANGPTL3 RNAi agents AD05488, AD05743, and AD05775 included nucleotide sequences designed to target position 304 of the ANGPTL3 gene. ANGPTL3 RNAi agent AD05841 included nucleotide sequences designed to target position 1035 of the ANGPTL3 gene.
# (§2) Three (3) cynos in each group were tested (n=3). Blood samples were drawn and serum samples were analyzed on days −14 (predose), −7 (predose), 1 (pre-dose), 8, 15, 22, 29, and 35. Cynos were fasted overnight prior to each collection. ANGPTL3 protein levels in serum were measured by ELISA assay (R&D Systems), according to the manufacturer's recommendations. Triglycerides, total cholesterol, high-density lipoprotein (HDL), and low-density lipoprotein (LDL) in serum were measured on a Cobas® Integra 400 (Roche Diagnostics), according to the manufacturer's recommendations.
# (§3) The ANGPTL3 protein levels, triglyceride levels, total cholesterol levels, HDL levels, and LDL levels for each animal were normalized. For normalization, the level of ANGPTL3 protein, triglyceride, HDL, and total cholesterol, respectively, for each animal at a time point, was divided by the average pre-treatment level of expression in that animal (in this case at days −14, −7, and 1) to determine the ratio of expression “normalized to pre-treatment.”
# ANGPTL3 gene [2] = test: Example 10: serum HDL in mice; assay type: in vivo; conditions: 0.5 mg/kg single SC injection day 1, female C57bl/6 mice, n=3, ratio to D5W control
# Procedure: (§4) To assess the in vivo activity of further ANGPTL3 RNAi agents that are designed to target position 304 on the ANGPTL3 gene, six- to eight-week-old female C57bl/6 mice were used. Pre-dose serum samples were taken at day −1 after a four hour fast. At day 1, each mouse was given a single subcutaneous administration of 200 μl containing 0.5 mg/kg (mpk) of an ANGPTL3 RNAi agent in D5W (dextrose in 5% water), or control (D5W) with no RNAi agent, according to the dosing groups recited in Table 47.
# (§5) Each of the RNAi agents included a modified sequence and an N-acetyl-galactosamine-containing targeting ligand conjugated to the 5′ terminal end of the sense strand. (See Tables 3, 4, and 5 for modified sequences and targeting ligand structures). As noted above, each of the ANGPTL3 RNAi agents dosed in this study included nucleotide sequences designed to target the ANGPTL3 gene at position 304. The injections were performed between the skin and muscle (i.e. subcutaneous injections) into the loose skin over the neck and shoulder area. Three (3) mice in each group were tested (n=3). Serum was collected on days 8, 15, 22, 29, and for some groups on day 36 (i.e., Groups 1, 2, and 9-13 only). Mice were fasted for four hours prior to each collection. ANGPTL3 protein levels in serum were measured by ELISA assay (R&D Systems), according to the manufacturer's recommendations. Triglycerides, total cholesterol, high-density lipoprotein (HDL), and low-density lipoprotein (LDL) in serum were measured on a Cobas® Integra 400 (Roche Diagnostics), according to the manufacturer's recommendations.
# (§6) The ANGPTL3 protein levels, triglyceride levels, total cholesterol levels, HDL levels, and LDL levels for each animal were normalized. For normalization, the level of ANGPTL3 protein, triglyceride, HDL, and total cholesterol, respectively, for each animal at a time point, was divided by the pre-treatment level of expression in that animal (in this case at day −1) to determine the ratio of expression “normalized to pre-treatment.” Expression at a specific time point was then normalized to the D5W control group by dividing the “normalized to pre-treatment” ratio for an individual animal by the mean “normalized to pretreatment” ratio of all mice in the D5W control group.
# ANGPTL3 gene [3] = test: Example 9: serum HDL in cynomolgus monkeys; assay type: in vivo, cynomolgus macaque (Macaca fascicularis); conditions: 2.0 mg/kg single SC injection day 1, cynos, n=3
# Procedure: as §1, §2, §3
# ANGPTL3 protein = test: Example 6: serum ANGPTL3 protein by ELISA in mice; assay type: in vivo, C57bl/6 mice; conditions: for Avg ANGPTL3, normalized to pre-treatment and control: 0.5 mg/kg single SC injection on day 1, serum, n=3
# Procedure: as §4, with “additional” for “further”, “25.” for “47.”
# as §5, with “structures).” for “structures). As noted above, each of the ANGPTL3 RNAi agents dosed in this study included nucleotide sequences designed to target the ANGPTL3 gene at position 304.”, “22, 30,” for “22, 29,”, “and” for “and for some groups”, “day 43 for certain groups” for “day 36”, “2, 5,” for “2,”, “and 10” for “and 9-13”
# as §6
# ANGPTL3 gene [4] = test: Example 4: serum LDL in mice; assay type: in vivo, C57bl/6 mice
substance,measurement,setting,value
"AD05488: RNAi agent duplex: antisense AM07235-AS, sense AM07234-SS (antisense mU*fA*mC*fUmGfAmUfCmAfAmAfUmAfUmGfUmUfGmAfG*mC; sense {NAG37}*[invAb]*mGmCmUmCmAmAmCmAfUfAfUmUmUmGmAmUmCmAmGmUmA*[invAb])",Average LDL Normalized to Pre-Treatment,ANGPTL3 gene [1]; Day 8,0.971
same,Average LDL Normalized to Pre-Treatment,ANGPTL3 gene [1]; Day 15,0.913
same,Average LDL Normalized to Pre-Treatment,ANGPTL3 gene [1]; Day 22,0.949
same,Average LDL Normalized to Pre-Treatment,ANGPTL3 gene [1]; Day 29,0.853
same,Average LDL Normalized to Pre-Treatment,ANGPTL3 gene [1]; Day 35,0.845
same,Average HDL Normalized to Pre-Treatment and Control,ANGPTL3 gene [2]; Day 8,0.648
same,Average HDL Normalized to Pre-Treatment and Control,ANGPTL3 gene [2]; Day 15,0.807
same,Average HDL Normalized to Pre-Treatment and Control,ANGPTL3 gene [2]; Day 22,0.733
same,Average HDL Normalized to Pre-Treatment and Control,ANGPTL3 gene [2]; Day 29,0.746
same,Average HDL Normalized to Pre-Treatment and Control,ANGPTL3 gene [2]; Day 36,0.816
same,Average HDL Normalized to Pre-Treatment,ANGPTL3 gene [3]; Day 8,0.985
same,Average HDL Normalized to Pre-Treatment,ANGPTL3 gene [3]; Day 15,0.911
same,Average HDL Normalized to Pre-Treatment,ANGPTL3 gene [3]; Day 22,0.849
same,Average HDL Normalized to Pre-Treatment,ANGPTL3 gene [3]; Day 29,0.856
same,Average HDL Normalized to Pre-Treatment,ANGPTL3 gene [3]; Day 35,0.810
same,"Avg ANGPTL3, normalized to pre-treatment and control",ANGPTL3 protein; Day 8,0.221
same,"Avg ANGPTL3, normalized to pre-treatment and control",ANGPTL3 protein; Day 15,0.272
same,"Avg ANGPTL3, normalized to pre-treatment and control",ANGPTL3 protein; Day 22,0.254
same,"Avg ANGPTL3, normalized to pre-treatment and control",ANGPTL3 protein; Day 30,0.381
same,"Avg ANGPTL3, normalized to pre-treatment and control",ANGPTL3 protein; Day 43,0.475
same,reduction in ANGPTL3 protein levels,"ANGPTL3 protein; through at least day 22, single 0.5 mg/kg subcutaneous, C57bl/6 mice",substantial reduction
"AD05308: RNAi agent duplex: antisense AM07003-AS, sense AM07002-SS (chain 1 mU*fG*mU*fUmGfAmAfUmUfAmAfUmGfUmCfCmAfUmGfG*mA; chain 2 {NAG37}*[invAb]*mUmCmCmAmUmGmGmAfCfAfUmUmAmAmUmUmCmAmAmCmA*[invAb])","Avg LDL, normalized to pre-treatment and control","ANGPTL3 gene [4]; Day 22, 0.5 mg/kg single SC injection on day 1, n=3",1.209
same,"Avg LDL, normalized to pre-treatment and control","ANGPTL3 gene [4]; Day 29, 0.5 mg/kg single SC injection on day 1, n=3",1.251
same,"Avg LDL, normalized to pre-treatment and control","ANGPTL3 gene [4]; Day 43, 0.5 mg/kg single SC injection on day 1, n=3",1.375
